Measurements from US11912682B2, “Isoindolinone compounds” (Monte Rosa Therapeutics, Inc., priority 2021, dated 2024).

Tests used:
[1] = target: T1, GSPT1 (Homo sapiens (Human), UniProt P15170+Q96SW2); assay: GSPT1 degradation in cells treated with compound (FIG. 1A); assay type: cell-based; details: cells treated with 0.3 µM
Target sequence in this assay (P15170 whole entry, looked up): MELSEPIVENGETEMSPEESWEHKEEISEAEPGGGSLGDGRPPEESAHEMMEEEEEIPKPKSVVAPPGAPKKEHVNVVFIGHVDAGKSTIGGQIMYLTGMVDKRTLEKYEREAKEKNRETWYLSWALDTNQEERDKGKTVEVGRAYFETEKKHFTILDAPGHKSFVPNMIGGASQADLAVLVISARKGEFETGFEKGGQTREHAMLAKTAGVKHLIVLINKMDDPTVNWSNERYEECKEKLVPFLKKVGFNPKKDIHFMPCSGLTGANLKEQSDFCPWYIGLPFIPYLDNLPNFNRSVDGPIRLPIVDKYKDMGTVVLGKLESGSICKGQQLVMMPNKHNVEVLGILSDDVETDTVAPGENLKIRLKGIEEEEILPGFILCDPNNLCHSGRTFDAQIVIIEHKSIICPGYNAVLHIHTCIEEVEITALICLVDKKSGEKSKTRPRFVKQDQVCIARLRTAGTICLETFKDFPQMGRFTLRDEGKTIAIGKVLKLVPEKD
Target sequence in this assay (Q96SW2 whole entry, looked up): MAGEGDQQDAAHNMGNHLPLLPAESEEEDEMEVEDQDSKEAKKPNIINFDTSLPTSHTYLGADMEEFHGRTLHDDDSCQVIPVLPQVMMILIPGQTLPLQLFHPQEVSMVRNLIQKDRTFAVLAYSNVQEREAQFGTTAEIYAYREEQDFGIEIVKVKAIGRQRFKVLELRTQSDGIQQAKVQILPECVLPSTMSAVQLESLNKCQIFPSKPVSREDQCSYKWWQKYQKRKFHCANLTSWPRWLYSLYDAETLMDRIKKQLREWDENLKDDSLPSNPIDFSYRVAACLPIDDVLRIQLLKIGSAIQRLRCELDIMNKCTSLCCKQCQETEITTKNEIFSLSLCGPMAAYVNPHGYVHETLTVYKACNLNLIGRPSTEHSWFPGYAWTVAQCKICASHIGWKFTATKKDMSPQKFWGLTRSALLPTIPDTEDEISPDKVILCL
Target sequence in this assay (Q16531 whole entry partner, looked up): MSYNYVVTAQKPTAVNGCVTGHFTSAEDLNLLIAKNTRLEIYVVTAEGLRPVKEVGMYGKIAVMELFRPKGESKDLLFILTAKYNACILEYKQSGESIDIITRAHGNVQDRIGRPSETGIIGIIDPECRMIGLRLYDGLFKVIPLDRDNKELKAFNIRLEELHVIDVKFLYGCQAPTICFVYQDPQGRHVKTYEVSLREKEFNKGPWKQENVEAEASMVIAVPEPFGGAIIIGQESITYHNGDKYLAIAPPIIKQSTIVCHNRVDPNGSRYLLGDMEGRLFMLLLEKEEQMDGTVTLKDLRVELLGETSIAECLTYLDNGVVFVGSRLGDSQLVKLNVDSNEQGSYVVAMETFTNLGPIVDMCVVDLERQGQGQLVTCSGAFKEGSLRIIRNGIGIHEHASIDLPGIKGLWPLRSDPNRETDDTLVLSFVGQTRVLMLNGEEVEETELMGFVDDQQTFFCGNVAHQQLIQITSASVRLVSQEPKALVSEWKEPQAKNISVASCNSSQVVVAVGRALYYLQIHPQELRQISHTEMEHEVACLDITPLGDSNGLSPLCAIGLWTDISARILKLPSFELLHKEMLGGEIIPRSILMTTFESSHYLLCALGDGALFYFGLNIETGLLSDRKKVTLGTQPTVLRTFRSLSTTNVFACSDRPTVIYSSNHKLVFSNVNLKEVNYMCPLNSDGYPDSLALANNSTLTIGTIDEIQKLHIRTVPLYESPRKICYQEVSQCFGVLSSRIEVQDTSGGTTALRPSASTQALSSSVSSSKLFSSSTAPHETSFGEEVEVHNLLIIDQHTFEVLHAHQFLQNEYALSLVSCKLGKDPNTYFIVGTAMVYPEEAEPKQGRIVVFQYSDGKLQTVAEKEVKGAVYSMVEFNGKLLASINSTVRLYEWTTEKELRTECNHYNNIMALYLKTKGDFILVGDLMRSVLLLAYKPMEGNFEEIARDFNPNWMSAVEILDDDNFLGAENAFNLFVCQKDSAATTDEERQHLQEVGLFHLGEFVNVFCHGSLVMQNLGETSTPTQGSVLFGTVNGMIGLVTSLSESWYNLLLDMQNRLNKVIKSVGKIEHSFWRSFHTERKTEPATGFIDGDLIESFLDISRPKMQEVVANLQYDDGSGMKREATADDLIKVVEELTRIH

[2] = target: SALL (Homo sapiens (Human), UniProt Q9UJQ4); assay: SALL degradation in cells treated with compound (FIG. 1A); assay type: cell-based; details: concentrations up to 30 µM
[3] = target: T1, GSPT1; assay: Mass spectrometry-based proteomics analysis of a treated cancer cell line (FIG. 1B); details: cancer cell line treated with compound; fold-change (log2) vs p-value
Target sequence in this assay (P15170 whole entry, looked up): as the sequence (P15170 whole entry, looked up) above
Target sequence in this assay (Q96SW2 whole entry, looked up): as the sequence (Q96SW2 whole entry, looked up) above
Target sequence in this assay (Q16531 whole entry partner, looked up): as the sequence (Q16531 whole entry partner, looked up) above

[4] = test system: NCI-H1155; assay: Viability of NSCLC cell line, high N-Myc (FIG. 2A); assay type: cell-based, human; details: compared to low N-Myc lines EBC-1, NCI-H2023
[5] = test system: ABC-1; assay: Viability of NSCLC cell line, high N-Myc (FIG. 2A); assay type: cell-based; details: ABC-1, high N-Myc; compared to low N-Myc lines EBC-1, NCI-H2023
[6] = target: T2, GSPT1 (Homo sapiens (Human), UniProt P15170); assay: GSPT1 degradation in tumors of treated mice (FIG. 3B); assay type: in vivo, mouse; details: all three dose levels (1, 3, 6 mg/kg), compared to vehicle control
[7] = test system: human cell line NCI-H1770; assay: N-Myc-driven mouse xenograft model, NCI-H1770 (FIG. 3C); assay type: in vivo
[8] = target: SALL4 (Homo sapiens (Human), UniProt Q9UJQ4); assay: substrate degradation in cells (FIG. 1A), SALL4; assay type: cell-based; details: highest concentration tested of 30 μM
[9] = test system: NCI-H1155, ABC-1 and EBC-1, NCI-H2023; assay: viability assay (CellTiter-Glo) in N-Myc high and N-Myc low NSCLC cell lines; assay type: cell-based; details: 72 hours
Method: The anti-proliferative activity of compound 10 was tested on representative N-Myc high and N-Myc low cell lines (NCI-H1155, ABC-1 and EBC-1, NCI-H2023, respectively) following treatment with compound for 72 hours. Cells were sub-cultures as recommended by the providers (ATCC, DSMZ) and incubated at 37° C., 5% CO2. All cells were authenticated and confirmed by Short Tandem Repeat (STR) profiling. Briefly, cells were seeded to the appropriate density to allow logarithmic growth over the assay period in 96-well opaque-walled clear bottom plates (from Corning, Cat. No. 3903, Lot. No. 16419061; 100 μL total volume) and incubated overnight. […] Cell viability was assessed using the CellTiter-Glo assay kit as recommended by the Manufacturer (Promega, Cat. No. G7558, Lot. No. 0000385738) and measurements performed on the EnSpire multimode plate reader (Perkin Elmer). EC50 values were determined using Prism8 (GraphPad) and the asymmetric (five-parameter) equation and least squares fit. GSPT1 levels were assessed in the NCI-H1155 and ABC-1 cell lines by densitometry analysis following treatment with compound 10 for 6 hours and western blotting analysis. […] For chemiluminescence and colorimetric signals “optimal automatic exposure” settings (3×3 binning) were employed while fluorescence was detected using 1-4 seconds exposure time to achieve best GAPDH signals and avoid overexposure. […]

[10] = target: T1, GSPT1; assay: GSPT1 levels by western blotting and densitometry in NCI-H1155 and ABC-1 cell lines; assay type: cell-based; details: for DC50: six hours
Method: The anti-proliferative activity of compound 10 was tested on representative N-Myc high and N-Myc low cell lines (NCI-H1155, ABC-1 and EBC-1, NCI-H2023, respectively) following treatment with compound for 72 hours. Cells were sub-cultures as recommended by the providers (ATCC, DSMZ) and incubated at 37° C., 5% CO2. All cells were authenticated and confirmed by Short Tandem Repeat (STR) profiling. Briefly, cells were seeded to the appropriate density to allow logarithmic growth over the assay period in 96-well opaque-walled clear bottom plates (from Corning, Cat. No. 3903, Lot. No. 16419061; 100 μL total volume) and incubated overnight. Compound 10 and DMSO control were subsequently dispensed to the plates using HPD300 and a 9 data-point titration curve with concentrations ranging from 30 μM to 0.1 nM. Dilutions were prepared fresh prior to the assay using a 10 mM DMSO stock. Final DMSO concentration was 0.5%. The plates were incubated for 3 days at 5% CO2, 37° C. Cell viability was assessed using the CellTiter-Glo assay kit as recommended by the Manufacturer (Promega, Cat. No. G7558, Lot. No. 0000385738) and measurements performed on the EnSpire multimode plate reader (Perkin Elmer). EC50 values were determined using Prism8 (GraphPad) and the asymmetric (five-parameter) equation and least squares fit. GSPT1 levels were assessed in the NCI-H1155 and ABC-1 cell lines by densitometry analysis following treatment with compound 10 for 6 hours and western blotting analysis. […] Membranes were then transferred between two clean sheets of plastic and chemiluminescence (GSPT1), Dylight680 fluorescence (GAPDH) as well as colorimetric (molecular weight standard) signals were detected using a Chemidoc MP imaging system (BioRad 17001402). For chemiluminescence and colorimetric signals “optimal automatic exposure” settings (3×3 binning) were employed while fluorescence was detected using 1-4 seconds exposure time to achieve best GAPDH signals and avoid overexposure. […]
Target sequence in this assay (P15170 whole entry): as the sequence (P15170 whole entry, looked up) above
Target sequence in this assay (Q96SW2 whole entry): as the sequence (Q96SW2 whole entry, looked up) above
Target sequence in this assay (Q16531 2-1140 partner): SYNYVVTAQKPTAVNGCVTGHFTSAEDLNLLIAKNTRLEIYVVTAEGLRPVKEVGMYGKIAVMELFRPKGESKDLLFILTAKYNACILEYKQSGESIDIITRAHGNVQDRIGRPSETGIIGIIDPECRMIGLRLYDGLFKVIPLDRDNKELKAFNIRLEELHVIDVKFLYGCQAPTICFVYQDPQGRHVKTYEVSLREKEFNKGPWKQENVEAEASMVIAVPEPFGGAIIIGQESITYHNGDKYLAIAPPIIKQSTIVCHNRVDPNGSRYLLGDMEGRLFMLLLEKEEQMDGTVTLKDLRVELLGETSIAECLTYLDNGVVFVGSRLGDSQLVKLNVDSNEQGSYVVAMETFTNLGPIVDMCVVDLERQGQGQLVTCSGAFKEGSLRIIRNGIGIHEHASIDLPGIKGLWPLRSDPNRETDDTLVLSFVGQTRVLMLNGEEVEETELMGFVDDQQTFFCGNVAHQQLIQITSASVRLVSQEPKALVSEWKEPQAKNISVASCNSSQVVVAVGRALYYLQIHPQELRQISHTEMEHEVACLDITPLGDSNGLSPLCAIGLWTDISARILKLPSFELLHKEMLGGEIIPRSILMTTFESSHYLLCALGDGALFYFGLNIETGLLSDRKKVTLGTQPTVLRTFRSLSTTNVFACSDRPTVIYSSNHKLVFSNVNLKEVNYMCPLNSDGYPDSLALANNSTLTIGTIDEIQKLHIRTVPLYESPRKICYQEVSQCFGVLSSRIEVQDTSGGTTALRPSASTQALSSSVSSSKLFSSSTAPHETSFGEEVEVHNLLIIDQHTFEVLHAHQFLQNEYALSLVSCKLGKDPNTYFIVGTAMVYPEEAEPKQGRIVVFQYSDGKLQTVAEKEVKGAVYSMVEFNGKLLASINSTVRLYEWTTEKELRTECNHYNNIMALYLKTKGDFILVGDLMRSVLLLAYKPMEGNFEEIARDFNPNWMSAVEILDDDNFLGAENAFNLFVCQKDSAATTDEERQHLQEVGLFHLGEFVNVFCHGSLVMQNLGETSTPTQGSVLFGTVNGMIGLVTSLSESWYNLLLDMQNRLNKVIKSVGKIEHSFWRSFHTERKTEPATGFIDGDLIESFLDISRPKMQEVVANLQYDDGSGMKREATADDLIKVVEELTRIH

[11] = test system: NCI-H1155 cells (human non small cell lung cancer); assay: NCI-H1155 xenograft study; assay type: in vivo, female BALB/c nude mice
Method: For the NCI-H1155 xenograft study, cells (human non small cell lung cancer, ATCC CRL-5818) were maintained in vitro as suspension culture in ATCC-formulated DMEM:F12 Medium supplemented as recommended by the provider and kept at 37° C. in an atmosphere of 5% CO2 in air. Cells (0.5 millions) were resuspended in 0.2 mL of PBS with Matrigel (50:50) and inoculated into female BALB/c nude mice, 6-8 weeks old, and allowed to grow to 150 mm^3 in size. Mice were dosed orally with either vehicle or compound 10 at 1 or 3 mg per kilogram daily (filled squares and filled triangles, respectively) or 6 mg per kilogram for 5 continous days followed by 9 days treatment holidays (5 On-9 off) (filled inverted triangles). Compound formulations were prepared fresh daily in 5%vDMSO/95%(30% w/v HP-β-CD in water). Gemcitabine dosed at 40 mg per kilogram, IP, Q4D×5 was used as a positive control (filled rhombi). For this study, mice were dosed for 21 days with tumor volumes measured every 3 days.

[12] = target: T2, GSPT1; assay: GSPT1 levels in NCI-H1155 tumors by western blotting; assay type: in vivo, female BALB/c nude mice; details: 6 hours after the third dose, all three dose levels
Method: GSPT1 levels in tumors were determined by western blotting 6 hours after the third dose. Western blotting was performed as described previously using GAPDH as loading control.

T2 sequence (P15170 whole entry): as the sequence (P15170 whole entry, looked up) above
T2 sequence (Q96SW2 whole entry, further chain): as the sequence (Q96SW2 whole entry, looked up) above
T2 sequence (Q16531 2-1140 partner): as the sequence (Q16531 2-1140 partner) above
Sequence of SALL (Q9UJQ4 whole entry, looked up): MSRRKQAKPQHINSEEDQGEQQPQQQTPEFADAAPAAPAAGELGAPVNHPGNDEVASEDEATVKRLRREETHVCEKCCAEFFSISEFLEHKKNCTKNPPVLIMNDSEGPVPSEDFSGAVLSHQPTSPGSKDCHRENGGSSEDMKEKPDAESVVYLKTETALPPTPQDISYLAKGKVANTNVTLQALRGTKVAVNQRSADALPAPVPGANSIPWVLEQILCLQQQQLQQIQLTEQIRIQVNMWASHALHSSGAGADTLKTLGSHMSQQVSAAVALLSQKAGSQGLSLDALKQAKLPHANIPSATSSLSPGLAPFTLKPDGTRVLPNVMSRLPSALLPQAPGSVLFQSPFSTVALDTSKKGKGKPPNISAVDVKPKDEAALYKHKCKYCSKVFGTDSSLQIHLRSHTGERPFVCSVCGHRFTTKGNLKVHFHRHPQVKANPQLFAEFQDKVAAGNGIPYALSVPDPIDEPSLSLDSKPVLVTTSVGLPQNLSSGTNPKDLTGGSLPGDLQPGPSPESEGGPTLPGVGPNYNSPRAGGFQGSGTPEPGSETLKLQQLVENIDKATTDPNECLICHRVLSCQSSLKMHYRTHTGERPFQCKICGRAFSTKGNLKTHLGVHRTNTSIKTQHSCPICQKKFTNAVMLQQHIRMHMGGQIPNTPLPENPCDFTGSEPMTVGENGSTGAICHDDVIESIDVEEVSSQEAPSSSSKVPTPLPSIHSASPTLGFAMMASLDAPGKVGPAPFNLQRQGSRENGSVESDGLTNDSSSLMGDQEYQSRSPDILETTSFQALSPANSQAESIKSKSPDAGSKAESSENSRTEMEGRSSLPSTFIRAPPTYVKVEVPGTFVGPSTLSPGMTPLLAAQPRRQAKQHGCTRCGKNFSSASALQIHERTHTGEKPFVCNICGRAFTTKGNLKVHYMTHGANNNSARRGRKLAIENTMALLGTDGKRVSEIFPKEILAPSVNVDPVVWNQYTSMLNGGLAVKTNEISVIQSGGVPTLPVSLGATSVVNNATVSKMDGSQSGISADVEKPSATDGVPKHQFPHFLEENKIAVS
Sequence of SALL4 (Q9UJQ4 whole entry, looked up): as above

- degradation of GSPT1 [1]: complete degradation
- degradation of SALL [2]: no induction of degradation
- degradation of GSPT1 in tumors [6]: complete degradation
- DC50 ([10]; ABC-1 cells): 22 nM
- DC50 ([10]; NCI-H1155 cells): 3 nM
- GSPT1 degradation ([10]; high N-Myc NCI-H1155 and ABC-1 cells, six hours of treatment): Complete degradation of GSPT1
- GSPT1 levels in tumors (FIG. 3B) [12]: Complete degradation of GSPT1
SMILES: Cc1ccc(NC(=O)OCc2ccc3c(c2)C(=O)N(C2CCC(=O)NC2=O)C3)cc1Cl (stereo not drawn) [Compound 10]
- GSPT1 protein change in proteomics analysis [3]: most statistically significant downregulated protein
- sensitivity to treatment (viability in %) [4]: highly sensitive
- sensitivity to treatment (viability in %) [5]: highly sensitive
- tumor size (tumor volume) ([7]; 3 mg/kg PO once daily): tumor size decreased and remained so until the end of the study
- tumor size (tumor volume) ([7]; 6 mg/kg PO five days on and nine days off): tumor size decreased and remained so until the end of the study
- body weight ([7]; oral administration): no body weight loss
- effect on tumor growth (tumor volume) ([7]; oral administration): tumor growth inhibition
- SALL4 degradation (FIG. 1A) [8]: none of the known the substrates IKZF1, IKZF3, SALL4, CK1alpha was degraded
- anti-proliferative sensitivity (FIG. 2A) [9]: sensitivity correlated with the expression of N-Myc
- tumor growth (FIG. 3A) ([11]; 1 mg/kg once daily, oral): tumor growth was suppressed for two weeks
- tumor size (FIG. 3A) ([11]; 3 mg/kg once daily, oral): tumor size decreased, became undetectable by day eight and remained so until the end of the study at day 21
- tumor size (FIG. 3A) ([11]; 6 mg/kg five days on and nine days off, oral): tumor size decreased, became undetectable by day eight and remained so until the end of the study at day 21
- body weight ([11]; oral administration): no body weight loss observed
- tumor growth (FIG. 3A) ([11]; oral administration): tumor growth inhibition
